# Test results taken from patent US20220289691A1, “5-AMINO-SUBSTITUTED PYRAZOLES AND TRIAZOLES AS PEST CONTROL AGENTS” (Bayer Aktiengesellschaft, priority 2019, published 2022).
# Columns and labels:
# Type in all cases: in vivo
# Musca domestica = Musca domestica test; settings: 100 ppm, adult houseflies, after 2 days
# Procedure: (§1) Solvent: Dimethyl Sulfoxide
# To produce a suitable active compound formulation, 10 mg of active compound are mixed with 0.5 ml of dimethyl sulfoxide, and the concentrate is diluted with water to the desired concentration.
# Vessels containing a sponge treated with sugar solution and the desired concentration of active compound formulation are populated with 10 adult houseflies (Musca domestica).
# After 2 days, the kill in % is determined. 100% means that all of the flies have been killed; 0% means that none of the flies have been killed.
# Ctenocephalides felis [1] = assay: Ctenocephalides felis oral test; settings: 48 h, 100 ppm in citrated cattle blood, adult cat fleas, after 2 days, read-out: efficacy (kill)
# Procedure: Ctenocephalides felis—Oral Test
# as §1
# To produce a suitable active compound formulation, 10 mg of active compound are mixed with 0.5 ml of dimethyl sulfoxide. Dilution with citrated cattle blood gives the desired concentration.
# About 20 unfed adult cat fleas (Ctenocephalides felis) are placed into a chamber which is closed at the top and bottom with gauze. A metal cylinder whose bottom end is closed with parafilm is placed onto the chamber. The cylinder contains the blood/active compound formulation, which can be imbibed by the fleas through the parafilm membrane.
# After 2 days, the kill in % is determined. 100% means that all of the fleas have been killed; 0% means that none of the fleas have been killed.
# Phaedon cochleariae = Phaedon cochleariae spray test; settings: foliar, 168 h, Chinese cabbage leaf discs, after 7 days, read-out: efficacy (beetle larvae killed)
# Procedure: Phaedon cochleariae—Spray Test Solvent: 78.0 parts by weight of acetone • • 1.5 parts by weight of dimethylformamide Emulsifier: alkylaryl polyglycol ether
# To produce a suitable active compound formulation, 1 part by weight of active compound is dissolved using the stated parts by weight of solvent and made up with water containing an emulsifier concentration of 1000 ppm until the desired concentration is attained. To produce further test concentrations, the formulation is diluted with emulsifier-containing water.
# Discs of Chinese cabbage leaves (Brassica pekinensis) are sprayed with an active compound formulation of the desired concentration and, after drying, populated with larvae of the mustard beetle (Phaedon cochleariae).
# After 7 days, the efficacy in % is determined. 100% means that all the beetle larvae have been killed; 0% means that no beetle larvae have been killed.
# Spodoptera frugiperda = Spodoptera frugiperda spray test; settings: foliar, 168 h, maize leaf discs, after 7 days, read-out: efficacy (caterpillars killed)
# Method in brief: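 Compound was dissolved in acetone/dimethylformamide and diluted with water containing 1000 ppm alkylaryl polyglycol ether emulsifier to test concentrations. Maize leaf discs were sprayed, dried and infested with fall armyworm caterpillars. Efficacy (% caterpillars killed) was scored after 7 days.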
# Ctenocephalides felis [2] = assay: Ctenocephalides felis in vitro contact test with adult cat fleas; settings: 5 μg/cm^2 (=500 g of ai/ha), after 48 h, read-out: efficacy (fleas dead or moribund)
# Procedure: Ctenocephalides felis—In Vitro Contact Tests with Adult Cat Fleas
# For the coating of the test tubes, 9 mg of active compound are first dissolved in 1 ml of acetone p.a. and then diluted to the desired concentration with acetone p.a. 250 μl of the solution are distributed homogeneously on the inner walls and the base of a 25 ml glass tube by turning and rocking on an orbital shaker (rocking rotation at 30 rpm for 2 h). With 900 ppm of active compound solution and internal surface area 44.7 cm^2, given homogeneous distribution, an area-based dose of 5 μg/cm^2 is achieved.
# After the solvent has evaporated off, the tubes are populated with 5-10 adult cat fleas (Ctenocephalides felis), sealed with a perforated plastic lid and incubated in a horizontal position at room temperature and ambient humidity. After 48 h, efficacy is determined. To this end, the tubes are stood upright and the fleas are knocked to the base of the tube. Fleas which remain motionless at the base or move in an uncoordinated manner are considered to be dead or moribund.
# 100% efficacy means that all the fleas were dead or moribund. 0% efficacy means that no fleas were harmed.
# Meloidogyne incognita = Meloidogyne incognita test; settings: 336 h, lettuce, after 14 days, read-out: nematicidal efficacy (formation of galls)
# Procedure: Meloidogyne incognita Test Solvent: 125.0 parts by weight of acetone
# To produce a suitable active compound formulation, 1 part by weight of active compound is mixed with the stated amount of solvent and the concentrate is diluted to the desired concentration with water.
# Vessels are filled with sand, active compound solution, an egg/larvae suspension of the southern root-knot nematode (Meloidogyne incognita) and lettuce seeds. The lettuce seeds germinate and the plants develop. The galls develop on the roots.
# After 14 days, the nematicidal efficacy in % is determined by the formation of galls. 100% means that no galls were found; 0% means that the number of galls on the treated plants corresponds to the untreated control.
# Diabrotica balteata = Diabrotica balteata spray test; settings: 168 h, beetle larvae on wheat, after 7 days, read-out: efficacy (wheat plant growth); for pest or weed control at 125 g/ha: 125 g/ha (=40 μg/cavity); for pest or weed control at 500 g/ha: 500 g/ha (=160 μg/cavity); for pest or weed control at 100 g/ha: 100 g/ha (=32 μg/cavity)
# Method in brief: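 Germinated wheat seedlings in agar multiwell plates were sprayed with compound in acetone/DMF with emulsifier-containing water, then infested with 10-20 Diabrotica balteata larvae. After 7 days, efficacy (%) scored by plant growth: 100% equals untreated, uninfested control, 0% no plants grown.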
SMILES,pest or weed control at 100 g/ha (Spodoptera frugiperda) [%],pest or weed control at 5 µg/cm2 (Ctenocephalides felis [2]) [%],pest or weed control at 20 ppm (Meloidogyne incognita) [%],pest or weed control at 100 g/ha (Diabrotica balteata) [%],other results
CCO[C@@H]1[C@@H](OC)[C@H](C)O[C@@H](OC(=O)Nc2ccc(-c3nc(NC(=O)C4CC4)n(-c4ccc(OC(F)(F)C(F)(F)F)cc4)n3)cc2)[C@@H]1OC [Compound I-002],100,–,–,–,efficacy (kill) (Musca domestica): 90%; pest or weed control at 100 ppm (Ctenocephalides felis [1]): 100%; pest or weed control at 100 g/ha (Phaedon cochleariae): 83%; pest or weed control at 500 g/ha (Phaedon cochleariae): 100%; pest or weed control at 500 g/ha (Spodoptera frugiperda): 100%
CO[C@@H]1[C@@H](OC)[C@H](C)O[C@@H](OC(=O)Nc2ccc(-c3nc(NC(C)=O)n(-c4ccc(OC(F)(F)C(F)(F)F)cc4)n3)cc2)[C@@H]1OC [Compound I-008],100,–,–,–,efficacy (kill) (Musca domestica): 80%; pest or weed control at 100 ppm (Ctenocephalides felis [1]): 100%; pest or weed control at 100 g/ha (Phaedon cochleariae): 100%; pest or weed control at 500 g/ha (Phaedon cochleariae): 100%; pest or weed control at 500 g/ha (Spodoptera frugiperda): 100%
CC(=O)Nc1nc(-c2ccc(C=NNC(=S)Nc3ccccc3C(C)C)cc2)nn1-c1ccc(OC(F)(F)F)cc1 [Compound I-009],100,100,–,–,pest or weed control at 100 ppm (Ctenocephalides felis [1]): 100%; pest or weed control at 100 g/ha (Phaedon cochleariae): 100%
CC(=O)Nc1nc(-c2ccc(C(C)=NNC(=S)Nc3ccccc3C(C)C)cc2)nn1-c1ccc(OC(F)(F)F)cc1 [Compound I-017],100,–,90,–,pest or weed control at 100 ppm (Ctenocephalides felis [1]): 95%; pest or weed control at 100 g/ha (Phaedon cochleariae): 100%
CCN(CC)c1nc(-c2ccc(C=NNC(=S)Nc3ccccc3C(C)C)cc2)nn1-c1ccc(OC(F)(F)F)cc1 [Compound I-020],100,–,100,–,pest or weed control at 125 g/ha (Diabrotica balteata): 80%; pest or weed control at 500 g/ha (Diabrotica balteata): 100%
CC(=O)Nc1nc(-c2ccc(C=NN=C3SCC(=O)N3c3ccccc3C(C)C)cc2)nn1-c1ccc(OC(F)(F)F)cc1 [Compound I-032],100,80,–,–,pest or weed control at 125 g/ha (Diabrotica balteata): 100%; pest or weed control at 500 g/ha (Diabrotica balteata): 100%
CCNc1nc(-c2ccc(C=NN=C3SCC(=O)N3c3ccccc3C(C)C)cc2)nn1-c1ccc(OC(F)(F)F)cc1 [Compound I-047],–,–,90,–,–
CC(C)Nc1nc(-c2ccc(C=NN=C3SCC(=O)N3c3ccccc3C(C)C)cc2)nn1-c1ccc(OC(F)(F)F)cc1 [Compound I-048],–,–,90,–,–
CC(C)c1ccccc1NC(=S)NN=Cc1ccc(-c2nc(NC3CC3)n(-c3ccc(OC(F)(F)F)cc3)n2)cc1 [Compound I-051],100,–,90,100,pest or weed control at 500 g/ha (Diabrotica balteata): 100%
CC(C)Nc1nc(-c2ccc(C=NNC(=S)Nc3ccccc3C(C)C)cc2)nn1-c1ccc(OC(F)(F)F)cc1 [Compound I-052],100,–,100,100,–
CC(C)c1ccccc1N1C(=O)CSC1=NN=Cc1ccc(-c2nc(N)n(-c3ccc(OC(F)(F)F)cc3)n2)cc1 [Compound I-056],100,–,90,100,pest or weed control at 500 g/ha (Diabrotica balteata): 100%
CNc1nc(-c2ccc(NC(=O)N=C3SCC(=O)N3c3cc(C)ccc3C(C)C)cc2)nn1-c1ccc(OC(F)(F)C(F)(F)F)cc1 [Compound I-079],100,100,–,100,–
CNc1nc(-c2ccc(NC(=O)N=C3SCC(=O)N3c3cc(OC)ccc3C(C)C)cc2)nn1-c1ccc(OC(F)(F)C(F)(F)F)cc1 [Compound I-083],100,90,–,100,–
CNc1nc(-c2ccc(C=NN=C3SCC(=O)N3c3cc(OC)ccc3C(C)C)cc2)nn1-c1ccc(OC(F)(F)F)cc1 [Compound I-090],100,100,–,100,–
"CNc1nc(-c2ccc(C=NN=c3scc(C)n3-c3ccccc3C(C)C)cc2)nn1-c1ccc(OC(F)(F)F)cc1 [Compound I-097, 3-[4-({[3-(2-isopropylphenyl)-4-methyl-1,3-thiazol-2(3H)-ylidene]hydrazono}methyl)phenyl]-N-methyl-1-[4-(trifluoromethoxy)phenyl]-1H-1,2,4-triazol-5-amine]",83,100,–,100,–
CNc1nc(-c2ccc(C=NNC(=S)Nc3ccccc3C(C)C)c(F)c2)nn1-c1ccc(OC(F)(F)F)cc1 [Compound I-104],100,–,90,100,–
CNc1nc(-c2ccc(C=NN=C3SCC(=O)N3c3ccccc3C(C)C)c(F)c2)nn1-c1ccc(OC(F)(F)F)cc1 [Compound I-105],100,–,90,100,–
CNc1nc(-c2cc(F)c(C=NNC(=S)Nc3ccccc3C(C)C)c(F)c2)nn1-c1ccc(OC(F)(F)F)cc1 [Compound I-107],100,–,90,100,–
CNc1nc(-c2ccc(C=NNC(=S)Nc3ccccc3C(C)C)cc2Cl)nn1-c1ccc(OC(F)(F)F)cc1 [Compound I-108],100,–,90,100,–
CNc1nc(-c2ccc(C=NNC(=S)Nc3ccccc3C(C)C)cc2F)nn1-c1ccc(OC(F)(F)F)cc1 [Compound I-109],100,–,90,100,–
CNc1nc(-c2cc(F)c(C=NN=C3SCC(=O)N3c3ccccc3C(C)C)cc2F)nn1-c1ccc(OC(F)(F)F)cc1 [Compound I-111],100,–,100,100,–
CNc1nc(-c2ccc(C=NN=C3SCCCN3c3ccccc3C(C)C)cc2)nn1-c1ccc(OC(F)(F)F)cc1 [Compound I-117],100,100,–,100,–
